Biological target: T1, MrgprB2 (Mus musculus, UniProt Q3KNA1)
T1 construct: endogenous receptor in mouse peritoneal mast cells
T1 sequence (Q3KNA1 1-338): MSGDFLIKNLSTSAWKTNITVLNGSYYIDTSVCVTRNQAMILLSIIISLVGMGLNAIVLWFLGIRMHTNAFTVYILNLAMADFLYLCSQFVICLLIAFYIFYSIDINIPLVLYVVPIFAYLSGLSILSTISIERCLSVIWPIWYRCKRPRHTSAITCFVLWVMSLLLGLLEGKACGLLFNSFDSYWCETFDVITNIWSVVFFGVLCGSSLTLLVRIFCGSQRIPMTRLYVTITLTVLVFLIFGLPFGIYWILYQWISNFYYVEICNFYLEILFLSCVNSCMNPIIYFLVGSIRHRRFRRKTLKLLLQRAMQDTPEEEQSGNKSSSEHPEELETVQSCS
Assay: agonist: β-hexosaminidase release in WT peritoneal mast cells at […], absent in MrgprB2-/- cells
Format: cell-based

## C=CC[N+]1([C@H]2C[C@H]3[C@@H]4CC[C@H]5C[C@H](O)[C@@H](N6CCOCC6)C[C@]5(C)[C@H]4CC[C@]3(C)[C@H]2OC(C)=O)CCCC1 [rocuronium]
  agonist: β-hexosaminidase release in WT peritoneal mast cells at 20 μg/ml, absen: mediated via MrgprB2 by demonstrating that PMCs cultured from MrgprB2^−/− mice do not respond to these agonists

— PMC9582160, “Inhibition of MRGPRX2 but not FcεRI or MrgprB2-mediated mast cell degranulation by a small molecule inverse receptor agonist” (Frontiers in Immunology, 2022)
